The test system of this assay is soft rot fungi belonging to the groups Ascomycotina and Deuteromycotina. The assay can be described thus: Soft rot soil burial test on treated beech blocks (similar to ENV-807, toxic limits per EN113). The conditions noted are these: for Toxic Limit Value: active ingredient retention, beech blocks, John Innes No. 2 compost, 14 weeks at 28° C, lower-upper limits spanning pass/fail (>3% mass loss); for Effective Retention of Tebuconazole: tebuconazole retention needed.

This note sets out measurements from patent US20060160791A1, “Wood preservative formulations” (priority 1999, published 2006).

Excerpt: The toxic limit value for a particular biocidal compound is the concentration of the compound which is required to prevent degradation (defined as >3% mass loss) of a substrate by a target organism. Toxic limits are normally expressed as two experimentally-determined concentrations that span the pass/fail point of the test. The toxic index is the midpoint of these two values.
A convenient method of assessing the synergistic properties of a formulation is to use a ‘synergistic index’. This may be defined as: [formula]
The theoretical toxic index may be calculated by interpolation to the theoretical line of action. A SI of 1 indicates no synergism. As the SI increases, so the degree of synergism also increases.
Testing was carried out to determine the performance of active ingredients alone and in mixture using a soft rot soil burial method.
Beech (Fagus sylvatica) blocks measuring 5×5×30 mm were prepared from local grown, seasoned, knot-free sapwood. After oven drying and weighing, the blocks were vacuum impregnated (in groups of 6 replicates) with retentions of the test preservatives which had been freshly prepared using deionised water as the diluent.
After treatment, the blocks were covered with polythene for a period of one week to reduce the drying rate and allow any fixation reactions to occur. They were then fully ventilated by standing on the laboratory bench for 2 weeks and allowed to dry.
Each series of blocks was then exposed in John Innes (No. 2) compost, previously wetted to 110% of water holding capacity using deionised water. The test systems were then incubated for 14 weeks at 28° C.
Following incubation, blocks were removed from the soil, gently rinsed in clean water and then oven dried and re-weighed.
Preservative retention and weight change data were calculated for each block and the results expressed as toxic limit values according to the criteria laid down in the test method EN113.
Where the lower toxic limit value provides a weight loss of 10% m/m or greater, then the upper toxic limit value has been used to indicate the probable effective retention of preservative; this is in accordance with EN113.

As to `CC(C)(C)C(O)(CCc1ccc(Cl)cc1)Cn1cncn1` (stereo not drawn) [Tebuconazole, alpha-[2-(4-chlorophenyl)ethyl]-alpha(1,1-dimethylethyl)-1H-1,2,4-triazole-1-ethanol], the “Toxic Limit Value” was above 7.0 kgm^−3. Where the note is “alone or as part of the named mixture, EN113 conventions”, the “Effective Retention of Tebuconazole” value is above 7.0 kgm^−3. For the same compound, the “Effective Retention of Tebuconazole” value (alone or as part of the named mixture, EN113 conventions, listed as tebuconazole) is above 7 kgm^−3.
As for `CC(C1CC1)C(O)(Cn1cncn1)c1ccc(Cl)cc1` (stereo not drawn) [Cyproconazole, (2RS,3RS; 2RS,3SR)-2-(4-chlorophenyl)-3-cyclopropyl-1-(1H-1,2,4-triazol-1-yl)butan-2-ol], under “cyproconazole retention needed, alone or as part of the named mixture, EN113 conventions”, the “Effective Retention of Cyproconazole” value stood at 1.25 kgm^−3.
On to “N,N-didecyl-N-methyl-poly(oxyethyl)ammonium propionate [Bardap 26]”, for which the “Toxic Limit Value” is above 6.2 kgm^−3. The “Effective Retention of Bardap 26” value (Bardap 26 retention needed, alone or as part of the named mixture, EN113 conventions) is recorded as above 6.2 kgm^−3.
Consider `[O-][S+]1CCON=C1c1cc2ccccc2s1` (stereo not shown) [Bethoxazin, 3-(benzo[b]thien-2-yl)-5,6-dihydro-1,4,2-oxathiazine 4-oxide], for which the “Toxic Limit Value” was above 0.77 kgm^−3. Moreover, for the setting “bethoxazin retention needed, alone or as part of the named mixture, EN113 conventions”, the “Effective Retention of Bethoxazin” value is on record as above 0.77 kgm^−3.
As for `CCCC1COC(Cn2cncn2)(c2ccc(Cl)cc2Cl)O1` (stereo not shown) [Propiconazole, 1-[[2-(2-4-dichlorophenyl)-4-propyl-1,3-dioxolan-2-yl]methyl]-1H-1,2,4-triazole], the “Toxic Limit Value” is listed as above 7.0 kgm^−3. In addition, the “Effective Retention of Propiconazole” value (propiconazole retention needed, alone or as part of the named mixture, EN113 conventions) is above 7.0 kgm^−3.
